pIC50: −log10 of the molar value.
How the values were obtained:
SW-620 cells [1] = assay: Human Colon Carcinoma Clonogenic Assay, SW-620; format: cell-based; settings: SW-620, 2 days with drug, colonies after approximately 2 weeks
Protocol: Human Colon Carcinoma Clonozenic Assay. Human colon carcinoma cells are seeded into 6 well plates in volumes of 3 mL and allowed to incubate overnight (37° C., 5% CO2, 95% air). SW-620 cells are seeded at 7×10^5 per well; HCT-8 cells are seeded at 5×10^5 per well; HT-29 cells are seeded at 4×10^5 cells per well. Serially diluted drugs are prepared at 200 times the final concentration, and 15 μL are added to each of duplicate wells. Cells are incubated with drug for 2 days, rinsed once with 1 mL of trypsin+EDTA, and then trypsinized with the same trypsin solution. After trituration and centrifugation at 750×g for 3 minutes, the cells are suspended in serum-free growth medium and counted using an electronic particle counter. An agarose mixture appropriate for the cloning of each cell line is made using 10% fetal bovine serum in growth medium (SW-620-0.35% agarose, HCT-8 and HT-29-0.4% agarose). […] One; milliliter of each of these cell suspensions is added to duplicate wells of 6 well plates previously prepared with 10% serum/growth medium/1% agarose plugs. The cells in these plates are incubated for approximately 2 weeks in the incubator and stained with 1 mL per well of 1 mg/mL iodonitrotetrazolium violet stain. The visible colonies are counted with an electronic optical colony counter and the clonogenicity of treated cells calculated in comparison to untreated control cells.

[2] = biological target: T1, PDGFr (mouse PDGF-β receptor tyrosine kinase) (Mus musculus, UniProt P05622); assay: PDGFr tyrosine kinase assay, 32P incorporation into glutamate-tyrosine copolymer; format: biochemical; settings: 50 μM ATP
T1 construct: PCR primers are designed to amplify a fragment of DNA that codes for the intracellular tyrosine kinase domain; made in house; host or cells: Sf9 insect cells (baculovirus), cell lysate
Protocol: (§1) Platelet Derived Growth Factor Receptor (PDGFr) and Fibroblast Growth Factor Receptor (FGFr). Full length cDNAs for the mouse PDGF-β and human FGF-1 (flg) receptor tyrosine kinases were obtained from J. Escobedo and are prepared as described in J. Biol. Chem., 1991;262:1482-1487. PCR primers are designed to amplify a fragment of DNA that codes for the intracellular tyrosine kinase domain. The fragment is melded into a baculovirus vector, cotransfected with AcMNPV DNA, and the recombinant virus isolated. SF9 insect cells are infected with the virus to overexpress the protein, and the cell lysate is used for the assay.
(§2) PDGFr and FGFr. […] Briefly, to each well is added 82.5 μL of incubation buffer containing 25 mM Hepes (pH 7.0), 150 mM NaCl, 0.1% Triton X-100, 0.2 mM PMSF, 0.2 mM sodium vanadate, 10 mM manganese chloride, and 750 μg/mL of poly (4:1) glutamate-tyrosine followed by 2.5 μL of inhibitor and 5 μL of enzyme lysate (7.5 μg/μL FGFR-TK or 6.0 μg/μL PDGFR-TK) to initiate the reaction. Following a 10 minute incubation at 25° C., 10 μL of [γ^32 P]ATP (0.4 μCi plus 50 μM ATP) is added to each well, and samples are incubated for an additional 10 minutes at 25° C. The reaction is terminated by the addition of 100 μL of 30% trichloroacetic acid (TCA) containing 20 mM sodium pyrophosphate and precipitation of material onto glass fiber filter mats (Wallac). […] Nonspecific activity is defined as radioactivity retained on the filters following incubation of samples with buffer alone; (no enzyme). Specific enzymatic activity is defined as total activity (enzyme plus buffer) minus nonspecific activity.

SW-620 cells [3] = assay: Human Colon Carcinoma Growth Delay Assay, SW-620; format: cell-based; settings: 72 h, SW-620, 3 days
Protocol: Human Colon Carcinoma Growth Delay Assay. Human colon carcinoma cells are seeded into 96-well tissue culture plates in a final volume of 180 μL of 10% fetal bovine serum containing growth media and allowed to incubate overnight (37° C., 5% CO2, 95% air). Cells of the SW-620 cell line are seeded at 1.0-1.5×10^4 cells per well. Cells of the HCT-8 and HT-29 cell lines are seeded at 2-4×10^3 cells per well. Serially diluted drug solutions are prepared in growth medium at 10 times concentration; 20 μL of these solutions are added to duplicate wells and incubated with the cells for 3 days in a cell culture incubator. At the end of the incubation period, cells are fixed with 100 μL per well of 10% trichloroacetic acid after removing the drug/culture medium. The plates are washed five times with tap water and stained with 100 μL per well of 0.075% sulfrhodamine B in 1% acetic acid for 10 minutes. The plates are rinsed four times and allowed to air dry. The stain in the wells are solubilized by the addition of 10 mM unbuffered Tris base and the absorbance read using a microtiter plate optical reader. Inhibition of cell growth is calculated from absorbance data of the treated cells compared to untreated control cells.

[4] = biological target: T2, FGFr (human FGF-1 (flg) receptor tyrosine kinase) (Homo sapiens, UniProt P11362); assay: FGFr tyrosine kinase assay, 32P incorporation into glutamate-tyrosine copolymer; format: biochemical
T2 construct: PCR primers are designed to amplify a fragment of DNA that codes for the intracellular tyrosine kinase domain; made in house; host or cells: Sf9 insect cells (baculovirus), cell lysate
Protocol: as §1, §2

[5] = biological target: MAP Kinase Pathway (GST-MEK / GST-MAPK); assay: Cascade Assay for Inhibitors of the MAP Kinase Pathway (APK Assay); format: biochemical; settings: 50 μM [γ32P]ATP; compounds assessed at 10 μM
Protocol: Cascade Assay for Inhibitors of the MAP Kinase Pathway (APK Assay)
Incorporation of ^32 P into myelin basic protein (MBP) is assayed in the presence of a glutathione; S-transferase fusion protein containing p44MAP kinase (GST-MAPK) and a glutathione; S-transferase fusion protein containing p45MEK (GST-MEK). The assay solution contains 20 mM HEPES, pH 7.4, 10 mM magnesium chloride, 1 mM manganese chloride, 1 mM EGTA, 50 μM [γ^32 P]ATP, 10 μg GST-MEK, 0.5 μg GST-MAPK and 40 μg MBP in a final volume of 100 μL. Reactions are stopped after 20 minutes by addition of trichloroacetic acid and filtered through a GF/C filter mat. ^32 P retained on the filter mat is determined using a 1205 betaplate. Compounds are assessed at 10 μM for ability to inhibit incorporation of ^32 P.
To ascertain whether compounds are inhibiting GST-MEK or GST MAPK, two additional protocols are employed. In the first protocol, compounds are added to tubes containing GST-MEK, followed by addition of GST-MAPK, MBP and [γ^32 P]ATP. In the second protocol, compounds are added to tubes containing both GST-MEK and GST-MAPK, followed by MBP and [γ^32 P]ATP.
Compounds that show activity in both protocols are scored as MAPK inhibitors, while compounds showing activity in only the first protocol are scored as MEK inhibitors.

T1 sequence (P05622 599-961 limits assumed): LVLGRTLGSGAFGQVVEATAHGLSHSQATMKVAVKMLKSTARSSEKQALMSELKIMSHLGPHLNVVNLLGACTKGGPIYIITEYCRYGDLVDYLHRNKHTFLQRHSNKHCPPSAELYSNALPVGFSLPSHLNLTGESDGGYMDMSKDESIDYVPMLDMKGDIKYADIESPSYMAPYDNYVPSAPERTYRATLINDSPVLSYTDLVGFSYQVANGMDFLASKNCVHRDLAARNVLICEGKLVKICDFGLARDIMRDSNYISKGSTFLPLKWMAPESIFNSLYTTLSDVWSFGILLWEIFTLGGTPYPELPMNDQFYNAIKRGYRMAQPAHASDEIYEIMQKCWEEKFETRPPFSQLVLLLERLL
T2 sequence (P11362 478-767 limits assumed): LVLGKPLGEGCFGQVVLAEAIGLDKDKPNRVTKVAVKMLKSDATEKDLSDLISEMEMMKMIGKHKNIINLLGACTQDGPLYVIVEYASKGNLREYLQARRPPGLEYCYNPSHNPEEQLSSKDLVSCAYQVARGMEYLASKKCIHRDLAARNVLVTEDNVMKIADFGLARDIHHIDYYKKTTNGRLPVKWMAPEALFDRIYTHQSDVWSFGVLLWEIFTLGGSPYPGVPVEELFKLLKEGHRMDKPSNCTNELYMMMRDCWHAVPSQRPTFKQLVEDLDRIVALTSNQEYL

SMILES | pIC50 (SW-620 cells [1]) | pIC50 [2] | pIC50 (SW-620 cells [3]) | pIC50 [4] | pIC50 [5]
CCN(CC)CCCCNc1cc2c(cn1)cc(-c1c(Cl)cccc1Cl)c(=O)n2C [Example F, 3-(2,6-dichlorophenyl)-7-[4-(diethylamino)butylamino]-1-methyl-1H-[1,6]naphthyridin-2-one] | < 5.30 | 6.38 | 5.14 | 7.15 | < 5.00
CN1CCN(CCCNc2cc3c(cn2)cc(-c2c(Cl)cccc2Cl)c(=O)n3C)CC1 [Example H, 3-(2,6-dichlorophenyl)-1-methyl-7-[3-(4-methylpiperazin-1-yl)propylamino]-1H-[1,6]naphthyridin-2-one] |  | 6.05 | 5.28 | 7.30 | 5.00
CCN(CC)CCOc1ccc(Nc2cc3c(cn2)cc(-c2c(Cl)cccc2Cl)c(=O)n3C)cc1 [Example P, 3-(2,6-dichlorophenyl)-7-[(4-(2-(diethylamino)ethoxy)phenyl)amino]-1-methyl-1H-[1,6]naphthyridin-2-one] |  | 7.05 | 5.17 |  | 
CN1CCN(CCOc2ccc(Nc3cc4c(cn3)cc(-c3c(Cl)cccc3Cl)c(=O)n4C)cc2)CC1 [Example S, 3-(2,6-dichlorophenyl)-1-methyl-7-[(4-(2-(4-methylpiperazin-1-yl)ethoxy)phenyl)amino]-1H-[1,6]naphthyridin-2-one] | 5.55 | 6.47 | 5.17 |  | 

Reference: patent publication US6150359A, “Naphthyridinones for inhibiting protein tyrosine kinase and cell cycle kinase mediated cellular proliferation” (Warner-Lambert Company, priority 2000, dated 2000)
